Starred links: 1 amine or outer side, 2 acyl side, 3 side chain; linkers in the order of their positions; H or OH if unused. Residues, ends and D or L forms follow the SMILES beside them. *: point of attachment. AFC = O=c1cc(C(F)(F)F)c2ccc(N*)cc2o1; Morpholide = C1CN(*)CCO1; CO = O=C([*:1])[*:2]
Biological target: purified Taenia solium cysteine protease
Experiment: Competitor assay: vehicle inhibition of cleavage of high Vmax AFC substrate cocktails (Step III)
Type: biochemical
Conditions: preliminary results, in comparison to the battery of substrates
Description: (We employed “Vmax” here although Kcat could also be used). Due to the lower number of substrates, a percentage was not chosen for the “BOTTOM %” substrates. Alternately, all substrates which were not cleaved as determined by a value of 10 μM/hr or less, were chosen to be tested in this step for competitive ability. From this point forth, the term “vehicle” will represent low Vmax substrates that were capable of inhibiting cleavage of the percent cocktails. In this instance, we tested for “vehicles” which inhibited cleavage of the TOP 1.4% cocktail (they were delivered into the active site). Based upon our results from Step II, the top 1.4% cocktail was composed of Z-Phe-Arg-AFC, the highest cleaved substrate.
The experiment began with a competitor test between the noncleaved low Vmax substrates and the highest Vmax substrate, Z-Phe-Arg-AFC. Concentrations were varied between the low Vmax substrate and Z-Phe-Arg-AFC, as described above under “refinement of assay” until a relative inhibition profile was obtained.
The mixture was allowed to equilibrate for a period of 30 minutes. Finally, active purified enzyme was added to the tubes at a concentration which was always 50 times less than the concentration of the high and low Vmax substrates, in order to insure saturation conditions. This concentration varied from purification to purification and the amount added depended upon the yield and specific activity of the purified protease.
Positive controls were set up similarly as described for test controls, except that solvent was added in substitution for the low Vmax substrate (in a volume equal to the low Vmax volume addition). All of the substrates could be dissolved in dimethylsulfoxide (DMSO), and therefore, this was the solvent of choice. Negative controls were set up by adding the low Vmax and the high Vmax substrate in a tube without the protease. All potential non-proteolytic induced liberation of AFC was therefore controlled for in this tube (a feature which also insured stability of the AFC substrates, since these substrates will freely liberate AFC when unstable). A tube set will be established for this negative control.
All controls were set up in triplicate, and experiments repeated a minimum of five times. The assays were incubated at 37° C., for 18 hours overnight.
Percent inhibition was calculated as: [formula]
A 2.9% cocktail of the high Vmax substrates was made. This was composed of Z-FR-AFC and the second most cleaved substrate, Z-FAR-AFC. The vehicles promoted from the initial screenings above were again tested for competitive inhibition ability with the new cocktails. Their concentrations were set identically to those which were “fixed” in the previous protocols. […]

## CC(C)C[C@H](NC(=O)N1CCOCC1)C(=O)N[C@@H](Cc1ccc(O)cc1)C(=O)Nc1ccc2c(C(F)(F)F)cc(=O)oc2c1 [Mu-LY-AFC, Mu-Leu-Tyr-AFC] ({Morpholide-CO}-Leu-Tyr-{AFC})
  Ki of vehicles (ranking; values not reported): lowest Ki values

Source: patent US20030077653A1, “Method for the identification of active site protease inactivators” (The University of Georgia Research Foundation, Inc., priority 2000, published 2003)
